# In EPA's ToxValDB 9.5 (doi:10.2903/j.efsa.2005.26r):
# How the values were obtained:
# Daphnia magna = settings: chronic/long-term; duration: 21 days; reproduction
# Oncorhynchus mykiss = settings: acute; duration: 96 hours; mortality
# Apis mellifera = settings: acute; duration: 48 hours; oral; unspecified; mortality
# Pimephales promelas = settings: chronic/long-term; duration: 28 days
# Tagia sp. = settings: acute; duration: 14 days; mortality
# Aphidius rhopalosiphi = assay: LR50; higher = less toxic; settings: acute; duration: 48 hours; mortality
smiles,measurement,setting,value
CNC(=O)ON=C(SC)C(=O)N(C)C [Oxamyl],NOAEL,"Rattus norvegicus; acute, oral, gavage, M/F, clinical signs",0.1 mg/kg-day
same,LD50,"Rattus norvegicus; acute, oral, mortality",2.5 mg/kg
same,NOEC,Rattus norvegicus; reproduction developmental,1.43 mg/kg-day
same,LD50,"Anas platyrhynchos; acute, oral, unspecified, mortality",3.16 mg/kg
same,NOEC,Anas platyrhynchos; reproductive,50 mg/kg
same,LC50,"Anas platyrhynchos; short-term, oral, feed, mortality",340 mg/kg
same,NOEC,Daphnia magna,0.0268 mg/L
same,LC50,Oncorhynchus mykiss,3.13 µg/mL
same,LD50,Apis mellifera,0.38 µg/piece
same,NOEC,Pimephales promelas,0.5 mg/L
same,LC50,Tagia sp.,112 mg/kg
same,LC50,"Colinus virginianus; acute, oral, diet, mortality",766 mg/kg
same,LD50,"Colinus virginianus; acute, oral, mortality",9.5 mg/kg
same,NOEC,Colinus virginianus; reproduction developmental,10 mg/kg-day
same,LR50,Aphidius rhopalosiphi,0.03 g/ha
